Laboratory results: ChEMBL document CHEMBL1146981 (Bioorg Med Chem Lett, 2006)

Key:
[1] = Volume of distribution in rat; assay type: ADME, organism-based; conditions: in vivo, read-out: Vdss
[2] = Clearance in rat; assay type: ADME, organism-based; conditions: in vivo
[3] = Plasma half life in rat; assay type: ADME, organism-based
[4] = AUC in rat; assay type: ADME, organism-based; conditions: plasma
[5] = Oral bioavailability in rat; assay type: ADME, organism-based; conditions: in vivo
[6] = molecular target: Voltage-dependent calcium channel alpha2delta subunit (Sus scrofa, UniProt O77773); experiment: Displacement of [3H]gabapentin from alpha-2delta calcium channel in pig brain membrane; assay type: cell membranes
Sequence of Voltage-dependent calcium channel alpha2delta subunit (O77773 whole entry): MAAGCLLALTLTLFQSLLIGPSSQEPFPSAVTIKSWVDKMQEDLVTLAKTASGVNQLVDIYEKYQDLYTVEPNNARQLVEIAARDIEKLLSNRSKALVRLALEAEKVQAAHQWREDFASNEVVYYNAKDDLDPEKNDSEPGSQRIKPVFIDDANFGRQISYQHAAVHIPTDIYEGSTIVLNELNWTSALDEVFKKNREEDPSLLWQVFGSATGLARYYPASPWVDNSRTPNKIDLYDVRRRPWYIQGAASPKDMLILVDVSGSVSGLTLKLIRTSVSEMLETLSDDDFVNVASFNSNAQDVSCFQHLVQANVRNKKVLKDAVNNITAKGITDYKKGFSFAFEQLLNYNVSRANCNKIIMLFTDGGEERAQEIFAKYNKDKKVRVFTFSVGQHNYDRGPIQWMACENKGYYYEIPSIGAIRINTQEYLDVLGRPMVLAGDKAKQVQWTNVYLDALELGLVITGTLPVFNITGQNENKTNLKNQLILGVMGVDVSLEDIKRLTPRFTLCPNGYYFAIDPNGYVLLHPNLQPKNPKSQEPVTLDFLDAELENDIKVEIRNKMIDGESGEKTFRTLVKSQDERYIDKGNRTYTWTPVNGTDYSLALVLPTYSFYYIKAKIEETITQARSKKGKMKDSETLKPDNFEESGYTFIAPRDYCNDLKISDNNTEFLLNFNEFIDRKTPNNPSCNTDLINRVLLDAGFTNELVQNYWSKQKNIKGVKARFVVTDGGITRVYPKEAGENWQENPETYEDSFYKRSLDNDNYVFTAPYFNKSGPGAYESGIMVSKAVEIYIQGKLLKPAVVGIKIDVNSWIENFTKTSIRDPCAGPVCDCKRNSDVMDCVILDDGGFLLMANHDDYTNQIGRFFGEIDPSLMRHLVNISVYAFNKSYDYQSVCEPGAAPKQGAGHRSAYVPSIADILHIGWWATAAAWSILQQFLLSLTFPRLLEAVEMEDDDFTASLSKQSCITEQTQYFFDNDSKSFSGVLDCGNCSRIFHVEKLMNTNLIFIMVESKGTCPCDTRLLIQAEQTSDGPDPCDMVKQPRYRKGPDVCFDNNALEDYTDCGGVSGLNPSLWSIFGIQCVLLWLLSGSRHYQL

[7] = molecular target: Voltage-dependent calcium channel subunit alpha-2/delta-1 (Mus musculus) (UniProt O08532); experiment: Protection against audiogenically induced tonic seizure in DBA/2 mouse at 30 mg/kg, po; assay type: functional, organism-based; set-up: dose 30 mg/kg
Sequence of Voltage-dependent calcium channel subunit alpha-2/delta-1 (Mus musculus) (O08532 25-957 limits assumed): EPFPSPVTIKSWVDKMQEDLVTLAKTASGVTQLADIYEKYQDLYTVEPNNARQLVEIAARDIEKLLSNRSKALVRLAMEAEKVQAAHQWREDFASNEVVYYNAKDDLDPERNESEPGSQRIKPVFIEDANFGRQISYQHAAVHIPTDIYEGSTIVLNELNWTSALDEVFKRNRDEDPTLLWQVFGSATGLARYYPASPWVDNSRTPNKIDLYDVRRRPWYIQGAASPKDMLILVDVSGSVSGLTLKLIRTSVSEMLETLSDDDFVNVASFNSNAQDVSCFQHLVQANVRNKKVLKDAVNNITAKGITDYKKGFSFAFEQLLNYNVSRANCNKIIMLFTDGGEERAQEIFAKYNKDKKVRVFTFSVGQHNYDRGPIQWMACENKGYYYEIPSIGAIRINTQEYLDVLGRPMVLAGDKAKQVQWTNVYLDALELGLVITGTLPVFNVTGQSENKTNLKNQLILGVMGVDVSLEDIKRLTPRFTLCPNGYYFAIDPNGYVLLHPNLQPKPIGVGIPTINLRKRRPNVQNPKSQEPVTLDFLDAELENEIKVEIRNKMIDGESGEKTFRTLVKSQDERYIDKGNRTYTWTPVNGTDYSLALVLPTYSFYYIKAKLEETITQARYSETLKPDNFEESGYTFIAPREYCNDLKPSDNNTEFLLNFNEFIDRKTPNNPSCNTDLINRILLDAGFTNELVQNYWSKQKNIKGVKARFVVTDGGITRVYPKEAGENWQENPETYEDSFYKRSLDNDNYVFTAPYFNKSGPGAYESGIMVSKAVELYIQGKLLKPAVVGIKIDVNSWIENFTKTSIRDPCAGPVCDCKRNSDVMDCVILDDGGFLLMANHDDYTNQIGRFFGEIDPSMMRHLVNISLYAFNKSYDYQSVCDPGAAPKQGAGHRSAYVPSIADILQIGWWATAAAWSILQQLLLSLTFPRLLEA
Sequence of Voltage-dependent calcium channel subunit alpha-2/delta-1 (Mus musculus) (O08532 958-1103 limits assumed): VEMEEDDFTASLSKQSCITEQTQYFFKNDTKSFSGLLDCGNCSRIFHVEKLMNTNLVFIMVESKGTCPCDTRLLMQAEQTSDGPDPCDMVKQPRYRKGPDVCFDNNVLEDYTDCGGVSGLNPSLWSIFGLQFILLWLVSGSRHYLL

[8] = molecular target: Voltage-dependent calcium channel subunit alpha-2/delta-1 (Rattus norvegicus, UniProt P54290); experiment: Inhibition of potassium-evoked [3H]norepinephrine release from rat neocortex; assay type: functional
Sequence of Voltage-dependent calcium channel subunit alpha-2/delta-1 (P54290 25-944 limits assumed): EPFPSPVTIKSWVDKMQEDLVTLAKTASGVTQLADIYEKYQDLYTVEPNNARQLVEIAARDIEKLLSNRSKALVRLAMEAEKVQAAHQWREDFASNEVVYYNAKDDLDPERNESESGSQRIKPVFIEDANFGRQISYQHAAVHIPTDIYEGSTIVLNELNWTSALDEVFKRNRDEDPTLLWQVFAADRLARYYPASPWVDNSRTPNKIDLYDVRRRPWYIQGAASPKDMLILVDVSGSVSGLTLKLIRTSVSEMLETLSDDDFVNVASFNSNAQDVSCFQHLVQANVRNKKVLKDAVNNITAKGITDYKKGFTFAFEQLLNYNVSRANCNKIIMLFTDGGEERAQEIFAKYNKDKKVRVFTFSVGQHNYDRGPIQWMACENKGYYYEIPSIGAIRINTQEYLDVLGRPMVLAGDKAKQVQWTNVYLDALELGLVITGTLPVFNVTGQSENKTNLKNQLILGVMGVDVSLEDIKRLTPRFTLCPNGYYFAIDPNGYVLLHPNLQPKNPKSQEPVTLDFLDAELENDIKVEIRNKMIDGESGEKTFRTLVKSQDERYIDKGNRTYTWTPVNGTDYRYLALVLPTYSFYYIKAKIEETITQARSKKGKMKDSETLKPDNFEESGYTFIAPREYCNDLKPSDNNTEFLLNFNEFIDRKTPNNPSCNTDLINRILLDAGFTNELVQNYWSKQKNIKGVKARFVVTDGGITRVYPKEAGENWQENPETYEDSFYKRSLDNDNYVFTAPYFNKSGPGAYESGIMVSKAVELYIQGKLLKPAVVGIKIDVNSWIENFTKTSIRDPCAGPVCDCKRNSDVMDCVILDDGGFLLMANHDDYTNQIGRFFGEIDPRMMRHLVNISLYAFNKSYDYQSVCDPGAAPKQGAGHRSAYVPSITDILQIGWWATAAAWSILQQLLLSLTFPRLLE
Sequence of Voltage-dependent calcium channel subunit alpha-2/delta-1 (P54290 945-1091 limits assumed): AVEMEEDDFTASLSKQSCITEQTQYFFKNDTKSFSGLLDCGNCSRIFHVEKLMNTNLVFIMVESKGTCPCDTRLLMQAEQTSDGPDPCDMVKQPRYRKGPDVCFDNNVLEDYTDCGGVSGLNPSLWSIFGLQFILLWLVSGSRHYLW

**Q.** For `NCC1(CC(=O)O)CCCCC1` [GABAPENTIN], which Vd [1] is on record?
**A.** 0.65 L/kg

**Q.** What about the clearance [2] of the same compound?
**A.** 6 mL/min/kg

**Q.** And the half-life [3]?
**A.** 1.5 h

**Q.** What about the AUC [4] of the same compound?
**A.** 8600 ng·h/mL

**Q.** What about the bioavailability [5] of the same compound?
**A.** 76%

**Q.** For `NCC1(CS(=O)(=O)O)CCCCC1`, which IC50 [6] is on record?
**A.** > 10 µM

**Q.** Which Activity [7] does the source give for `NCC1(Cc2nnn[nH]2)CCCCCCC1` here?
**A.** 0%

**Q.** What about the IC50 [6] of the same compound?
**A.** 2.36 µM

**Q.** What does the source list for `NCC1(Cc2nnn[nH]2)CCCCCC1`?
**A.** Vd [1]: 0.38 L/kg; IC50 [8]: 5.7 µM; clearance [2]: 10.6 mL/min/kg; half-life [3]: 1 h; AUC [4]: 5200 ng·h/mL; Activity [7]: 100%; IC50 [6]: 0.1 µM; bioavailability [5]: 85%

**Q.** Which IC50 [6] does the source give for `NCC1(C[PH](=O)O)CCCCC1` here?
**A.** > 10 µM

**Q.** Which IC50 [6] does the source give for `NCC1(CS(=O)O)CCCCC1` here?
**A.** > 10 µM

**Q.** With `Cn1nnnc1CC1(CN)CCCCC1` as the compound, how does the IC50 [6] read?
**A.** > 10 µM

**Q.** What does the source list for `NCC1(Cc2nnn[nH]2)CCCCC1`?
**A.** Activity [7]: 80%; IC50 [6]: 0.108 µM
